Laboratory results from publication PMC4691061, “Repositioning of Thiourea-Containing Drugs as Tyrosinase Inhibitors” (International Journal of Molecular Sciences, 2015).
Read-outs that look alike come from different tables or passages of the source.

Columns and labels:
mushroom tyrosinase [1] = target: T1, mushroom tyrosinase (Agaricus bisporus, UniProt C7FF04); test: Kinetics of enzyme inhibition (Michaelis-Menten, nonlinear fitting, F-statistics); assay type: biochemical; conditions: for Mechanism: model selected by F-statistics among competitive, uncompetitive, non-competitive, mixed
B16F10 cells [2] = test: Melanin content assay (IBMX-stimulated); assay type: cell-based, murine; conditions: for activity at 20 µM: Mus musculus
mammalian tyrosinase = target: T2, mammalian tyrosinase (Mus musculus, UniProt P11344); test: Tyrosinase enzyme assay with B16F10 cell lysates; assay type: biochemical, murine; conditions: for Cell Lysate (%): B16F10 cell lysates, DOPA substrate, absence of inhibitor = 100%; for inhibition of mammalian tyrosinase (in words): cell extracts of B16F10 cells
T2 construct: host or cells: B16F10 murine melanoma cells (lysate supernatant)
T2 sequence (P11344 19-533): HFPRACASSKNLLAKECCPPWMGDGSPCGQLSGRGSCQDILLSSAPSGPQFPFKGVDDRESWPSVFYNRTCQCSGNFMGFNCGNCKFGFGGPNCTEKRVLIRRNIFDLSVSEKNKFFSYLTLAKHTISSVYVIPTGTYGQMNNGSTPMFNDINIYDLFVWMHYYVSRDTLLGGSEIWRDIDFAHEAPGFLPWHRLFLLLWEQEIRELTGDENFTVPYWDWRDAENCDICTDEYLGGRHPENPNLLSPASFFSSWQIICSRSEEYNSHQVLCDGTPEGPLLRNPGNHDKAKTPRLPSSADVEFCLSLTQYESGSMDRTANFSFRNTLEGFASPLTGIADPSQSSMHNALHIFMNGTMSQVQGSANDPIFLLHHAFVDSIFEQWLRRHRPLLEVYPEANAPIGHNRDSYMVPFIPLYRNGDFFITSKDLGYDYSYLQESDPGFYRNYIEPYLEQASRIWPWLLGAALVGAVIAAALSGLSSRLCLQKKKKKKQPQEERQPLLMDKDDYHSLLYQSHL

tyrosinase = conditions: cited from earlier work
B16F10 cells [3] = test: MTT cell viability assay; conditions: for MTT (%): 20 µM, mean ± SD, triplicate
mushroom tyrosinase [4] = target: T1, mushroom tyrosinase; test: Mushroom tyrosinase enzyme activity inhibition assay; assay type: biochemical; conditions: for LE (ligand efficiency): 1.4 × (−log10IC50)/N, N = number of non-hydrogen atoms; for inhibition of tyrosinase (in words): at 300 μM; for inhibition of tyrosinase enzyme activity (in words): concentration-dependent profiles, urea, thiourea, selenourea compared without DMSO
[5] = 20 μM, B16F10 cells, IBMX 100 μM
[6] = Ki for competitive, Kic for non-competitive model, nonlinear data fitting, read-out: Ki or Kic
[7] = B16-F10, 20 µM, B16F10 cells, IBMX 100 μM, absence of inhibitor = 100%, read-out: Melanin Content (%)
[8] = mushroom tyrosinase, 675 μM L-tyrosine as substrate, 5% DMSO, read-out: IC50
[9] = BindingDB-registered value, read-out: IC50 of closest known inhibitor

T1 sequence (C7FF04 1-392): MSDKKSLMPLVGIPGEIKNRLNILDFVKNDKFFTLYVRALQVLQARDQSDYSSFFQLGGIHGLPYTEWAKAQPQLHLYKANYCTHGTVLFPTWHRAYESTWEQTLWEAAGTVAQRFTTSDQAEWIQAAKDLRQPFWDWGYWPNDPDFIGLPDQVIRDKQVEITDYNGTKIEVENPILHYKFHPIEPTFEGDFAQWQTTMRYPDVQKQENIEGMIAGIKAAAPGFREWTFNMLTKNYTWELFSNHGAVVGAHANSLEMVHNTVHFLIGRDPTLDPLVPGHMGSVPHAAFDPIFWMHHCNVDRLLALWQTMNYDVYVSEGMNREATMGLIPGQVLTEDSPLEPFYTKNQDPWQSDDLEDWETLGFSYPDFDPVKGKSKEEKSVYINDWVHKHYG

Compound: NC(=S)Nc1ccccc1 [compound 1, Phenylthiourea]
- Mechanism (mushroom tyrosinase [1]): Competitive
- Mechanism (mushroom tyrosinase [1]; listed as PTU): competitive inhibitors
- decrease of melanin content (B16F10 cells [2]; [5]): 40%
- activity at 20 µM (B16F10 cells [2]; B16-F10, read-out: Melanin Content (%)): 59 ± 7%
- Cell Lysate (%) (mammalian tyrosinase): 5 ± 1%
- inhibition mechanism (reported) (tyrosinase): competitive inhibitors
- MTT (%) (B16F10 cells [3]): 113 ± 10%

Compound: Cc1cc(=O)[nH]c(=S)[nH]1 [compound 8, Methylthiouracil]
- Ki (mushroom tyrosinase [1]; [6]): 170 µM
- Mechanism (mushroom tyrosinase [1]): Non-competitive
- activity at 20 µM (B16F10 cells [2]; [7]): 102 ± 14%
- Cell Lysate (%) (mammalian tyrosinase): 78 ± 10%
- inhibition of mammalian tyrosinase (in words) (mammalian tyrosinase): significantly inhibited the function of tyrosinase
- MTT (%) (B16F10 cells [3]): 108 ± 10%
- LE (ligand efficiency) (mushroom tyrosinase [4]): 0.56
- IC50 (mushroom tyrosinase [4]; [8]): 266 µM

Compound: CCCc1cc(=O)[nH]c(=S)[nH]1 [compound 9, Propylthiouracil]
- Ki (mushroom tyrosinase [1]): 196 µM
- Mechanism (mushroom tyrosinase [1]): Non-competitive
- activity at 20 µM (B16F10 cells [2]; [7]): 102 ± 10%
- Cell Lysate (%) (mammalian tyrosinase): 77 ± 9%
- inhibition of mammalian tyrosinase (in words) (mammalian tyrosinase): significantly inhibited the function of tyrosinase
- MTT (%) (B16F10 cells [3]): 102 ± 12%
- IC50 (mushroom tyrosinase [4]): 375 µM

Compound: NC(=S)NN=Cc1ccc(F)cc1 [C00010, 4-fluorobenzaldehyde thiosemicarbazone]
- IC50 (tyrosinase; [9]): 11 µM

Compound: NC(=S)NN=C1CCCC1 [C00011, cyclopentanone thiosemicarbazone]
- IC50 (tyrosinase; [9]): 0.17 µM

Compound: CCCCOCCOc1ccc(Cc2c(O)[nH]c(=S)[nH]c2=O)cc1 [C00014]
- IC50 (tyrosinase; [9]): 179 µM

Compound: CNC(=S)NC [dimethylthiourea]
- inhibition of tyrosinase (in words) (mushroom tyrosinase [4]): hardly inhibited tyrosinase
- inhibition of tyrosinase enzyme activity (in words) (mushroom tyrosinase [4]): much weaker than thiourea

Compound: N=C(N)NN=C1C=CC(=NNC(N)=S)C=C1 [compound 4, Ambazone]
- Ki (mushroom tyrosinase [1]): 9 µM
- Mechanism (mushroom tyrosinase [1]): Non-competitive
- effect on melanin content (in words) (B16F10 cells [2]; 20 μM, B16F10 cells): decreased melanin content
- decrease of melanin content (B16F10 cells [2]; [5]): 20%
- activity at 20 µM (B16F10 cells [2]; [7]): 80 ± 11%
- Cell Lysate (%) (mammalian tyrosinase): 87 ± 9%
- inhibition of mammalian tyrosinase (in words) (mammalian tyrosinase): significantly inhibited the function of tyrosinase
- MTT (%) (B16F10 cells [3]): 95 ± 12%
- cytotoxicity (in words) (B16F10 cells [3]; up to 20 μM): without causing cellular toxicity
- IC50 (mushroom tyrosinase [4]): 15 µM
- LE (ligand efficiency) (mushroom tyrosinase [4]): 0.42

Compound: O=c1[nH]c(=S)[nH]c(O)c1Cc1ccc(O)cc1 [C00013]
- IC50 (tyrosinase; [9]): 70 µM
- IC50 (tyrosinase; known tyrosinase inhibitor, read-out: IC50): 70 µM

Compound: NC(N)=O [urea]
- inhibition of tyrosinase enzyme activity (in words) (mushroom tyrosinase [4]): no effect on activity

Compound: O=c1cc(CO)occ1O [compound 2, Kojic acid]
- decrease of melanin content (B16F10 cells [2]; [5]): < 5%
- activity at 20 µM (B16F10 cells [2]; [7]): 108 ± 11%
- inhibition mechanism (reported) (tyrosinase): competitive inhibitors
- MTT (%) (B16F10 cells [3]): 114 ± 10%

Compound: CC(=O)Nc1ccc(/C=N/NC(N)=S)cc1 [compound 3, Thioacetazone]
- Ki (mushroom tyrosinase [1]): 18 µM
- Mechanism (mushroom tyrosinase [1]): Non-competitive
- activity at 20 µM (B16F10 cells [2]; [7]): 102 ± 10%
- Cell Lysate (%) (mammalian tyrosinase): 74 ± 7%
- inhibition of mammalian tyrosinase (in words) (mammalian tyrosinase): significantly inhibited the function of tyrosinase
- MTT (%) (B16F10 cells [3]): 95 ± 15%
- IC50 (mushroom tyrosinase [4]): 14 µM
- LE (ligand efficiency) (mushroom tyrosinase [4]): 0.43

Compound: CCOC(=O)n1ccn(C)c1=S [compound 6, Carbimazole]
- inhibition of tyrosinase enzyme activity (in words) (mushroom tyrosinase [4]): did not inhibit tyrosinase
- IC50 (mushroom tyrosinase [4]; [8]): > 2000 µM

Compound: NNC(N)=S [thiosemicarbazide]
- inhibition of tyrosinase enzyme activity (in words) (mushroom tyrosinase [4]): much weaker than thiourea

Compound: N=C(N)[SeH] [selenourea]
- inhibition of tyrosinase enzyme activity (in words) (mushroom tyrosinase [4]): no effect on activity

Compound: NC(N)=S [thiourea]
- inhibition of tyrosinase enzyme activity (in words) (mushroom tyrosinase [4]): decreased tyrosinase enzyme activity in a concentration dependent manner

Compound: Cn1cc[nH]c1=S [compound 5, Methimazole]
- Ki (mushroom tyrosinase [1]; [6]): 73 µM
- Mechanism (mushroom tyrosinase [1]): Non-competitive
- Mechanism (mushroom tyrosinase [1]; listed as methimazole): non-competitive inhibitor
- activity at 20 µM (B16F10 cells [2]; [7]): 104 ± 12%
- Cell Lysate (%) (mammalian tyrosinase): 93 ± 10%
- inhibition of mammalian tyrosinase (in words) (mammalian tyrosinase): limited
- inhibition mechanism (reported) (tyrosinase): mixed inhibitor
- MTT (%) (B16F10 cells [3]): 100 ± 9%
- IC50 (mushroom tyrosinase [4]; [8]): 94 µM

Compound: O=c1cc[nH]c(=S)[nH]1 [compound 7, Thiouracil]
- Mechanism (mushroom tyrosinase [1]): Non-competitive
- activity at 20 µM (B16F10 cells [2]; [7]): 106 ± 14%
- Cell Lysate (%) (mammalian tyrosinase): 79 ± 9%
- inhibition of mammalian tyrosinase (in words) (mammalian tyrosinase): significantly inhibited the function of tyrosinase
- MTT (%) (B16F10 cells [3]): 99 ± 10%
- IC50 (mushroom tyrosinase [4]): 215 µM
- LE (ligand efficiency) (mushroom tyrosinase [4]): 0.64

Compound: Nn1c(-c2ccncc2)n[nH]c1=S [C00012]
- Ki (tyrosinase; BindingDB-registered value, column headed IC50, footnote says Ki, read-out: Ki of closest known inhibitor): 1 µM

Compound: CNC(N)=S [monomethylthiourea]
- inhibition of tyrosinase enzyme activity (in words) (mushroom tyrosinase [4]): much weaker than thiourea

Compound: CNC(=S)N(C)C [trimethylthiourea]
- inhibition of tyrosinase (in words) (mushroom tyrosinase [4]): hardly inhibited tyrosinase
- inhibition of tyrosinase enzyme activity (in words) (mushroom tyrosinase [4]): much weaker than thiourea

Compound: CN(C)C(=S)N(C)C [tetramethylthiourea]
- inhibition of tyrosinase (in words) (mushroom tyrosinase [4]): hardly inhibited tyrosinase
- inhibition of tyrosinase enzyme activity (in words) (mushroom tyrosinase [4]): much weaker than thiourea
